Experimental data from patent US20010049389A1, “Arthropod-controlling composition” (priority 2000, published 2001).

Key:
Type in all cases: in vivo
[1] = test system: adult American house dust mites (Dermatophagoides farinae); experiment: Test Example 10: treated drawing paper, American house dust mites; details: drawing paper 800 mg/m^2, 25° C., 65% humidity, 24 hours
Method: On a black drawing paper having 38 mm in diameter, 0.2 ml of an acetone solution of the Pyrone Compound was added dropwise and air-dried. The treated dosage was 800 mg/m^2. The drawing paper was set on an aluminum plate having 38 mm in diameter and adhesives were put on the edge to prevent for tested mites to escape. About 30 adult American house dust mites (Dermatophagoides farinae) were released on the drawing paper and kept at 25° C. and 65% of humidity for 24 hours. After that, the mortality was observed. The result was 100%.

[2] = test system: adult cat fleas (Ctenocephalides felis); experiment: Test Example 7: treated filter paper contact, adult cat fleas; details: three repetitions
Method: A designated amount of the Pyrone Compound was dissolved in acetone to give a 0.2 ml solution, which was uniformly treated on a filter paper having 3.8 cm in diameter, and air-dried for one hour. The filter paper was filled in a lid of a 200 ml glass bottle. Twenty adult cat fleas (Ctenocephalides felis) were released in the glass bottle, which was followed by covering with the lid. The glass bottle was upset for making the fleas contact with the filter paper, and kept at room temperature (25±3° C.) for one day. After that, the mortality was observed.

[3] = test system: adult German cockroaches (Blattella germanica); experiment: Test Example 3: direct spray of oil solution, knock-down of German cockroaches; details: 1.5 ml of 0.5% oil solution sprayed directly, one minute after spraying
Method: A square of paper (side: 20 cm) was covered on the iron net set on the bottom of the metallic chamber (46 cm×46 cm, 70 cm in height). A container (8.75 cm in diameter, 7.5 cm in height, having 16-mesh net at the bottom and spreading butter on the wall for preventing escape) was set on the paper. In the container, ten (5 males and 5 females) adult German cockroaches (Blattella germanica) were released. By means of spray gun, 1.5 ml of the oil solution obtained in Preparation example 9 was applied to the test insects at a pressure of 0.42 kg/cm^2 from the upper part of the chamber. The container was taken out of the chamber 30 seconds after spraying and the test insects were transferred to a clean plastic cup. One minute after spraying, the knocked-down cockroaches were counted. As a result, the knock-down percentage was 100%. Reference compound was also tested and the knock-down percentage was 42%.

[4] = test system: adult American cockroaches (Periplaneta americana); experiment: Test Example 5: heating fumigant (ceramic plate) in 5.8 m^3 chamber, American cockroaches; details: heating fumigant (Preparation example 24, 500 mg) at about 200° C. in 5.8 m^3 chamber
Method: (§1) On the bottom of a cubic chamber having 1.8 m of side (5.8 m^3), the heating fumigant (ceramic plate) obtained in Preparation example 24 with an electric heater was set in the center. Two plastic cups were put at two corners in the chamber, wherein each cup has ten (5 males and 5 females) adult German cockroaches (Blattella germanica) therein. Two hours after turning on an electric current, the ceramic plate was heated to about 200° C. (200±5° C.) and the active ingredient was vaporized. The heating temperature was estimated by measuring a surface temperature of the ceramic plate with radiation pyrometer (TR-0506C produced by Minolta Company) in advance. Then, the knocked-down cockroaches were counted and the knock-down percentage was calculated. Further, the cockroaches were transferred to a clean plastic cup and given foods and water. The mortality was observed after 7 days.
(§2) Furthermore, the same tests were performed except that six (3 males and 3 females) adult smokybrown cockroaches (Periplaneta fuliginosa) and six (3 males and 3 females) adult American cockroaches (Periplaneta americana) were used in place of ten German cockroaches.

[5] = test system: 3-instar larvae of diamondback moth (Plutella xylostella); experiment: Test Example 18: treated cabbage leaf disc, feeding damage by diamondback moth; details: 50 μg on cabbage leaf disc of 1 cm diameter, after 24 hours
Method: A methanol solution (50 μg/20 μl) of the Pyrone Compound was prepared. The solution (20 μl) was painted on a cut leaf disc of cabbage (1 cm in diameter). After vaporizing methanol, the leaf disc was put on a filter paper, which was wet with 1 ml of water, in Petri dish making the painted surface upside. Two 4-instar larvae of tobacco cutworm (Spodoptera litura) were put in the Petri dish. After 24 hours, the damage of the leaf disc was observed and compared with the test result of the non-treated disc. The tests were repeated 5 times.
The same procedure was performed as in Test example 17 except that five 3-instar larvae of diamondback moth (Plutella xylostella) was used in place of tobacco cutworm (Spodoptera litura).

[6] = test system: adult German cockroaches (Blattella germanica); experiment: Test Example 4: smoking formulation in 28 m^3 chamber, German cockroaches; details: 10 g smoking (Preparation example 25) in 28 m^3 chamber
From the text: (§3) In a test chamber of 3 m×4 m and 2.3 m in height (28 m^3), two plastic cups were put at two corners, wherein each cup has ten (5 males and 5 females) adult German cockroaches (Blattella germanica) therein. Ten grams (10 g) of the smoking obtained in Preparation example 25 and 50g of magnesium oxide were charged into each of the cells in an aluminum container having an aluminum wall. The cell charged magnesium oxide has small holes. The aluminum container was dipped into water in the plastic container set in the test chamber. The smoking was heated to release the vaporized active ingredient by the reaction heats of magnesium oxide with water. After 2 hours, knock-down percentage was observed. Further, the cockroaches were transferred to a clean plastic cup and given foods and water. The mortality was observed after 7 days.

[7] = test system: adult smokybrown cockroaches (Periplaneta fuliginosa); experiment: Test Example 4: smoking formulation in 28 m^3 chamber, smokybrown cockroaches; details: 10 g smoking (Preparation example 25) in 28 m^3 chamber
From the text: as §3, §2

[8] = test system: adult German cockroaches (Blattella germanica); experiment: Test Example 5: heating fumigant (ceramic plate) in 5.8 m^3 chamber, German cockroaches; details: heating fumigant (Preparation example 24, 500 mg) at about 200° C. in 5.8 m^3 chamber
Method: as §1

[9] = test system: female adult common mosquitoes (Culex pipiens pallens); experiment: Test Example 6: mosquito-coil in 0.34 m^3 chamber, knock-down of common mosquitoes; details: 1% mosquito-coil (Preparation example 18) burnt in 0.34 m^3 chamber, after 15 minutes
Method: On the bottom center of a cubic chamber having 70 cm of side (0.34 m^3), the mosquito-coil obtained in Preparation example 18 was set in a mosquito-coil holder. The mosquito-coil was ignited and the air in the chamber was stirred with a battery-type small electric fun. After that, the mosquito-coil and the electric fun were taken out and twenty female adult common mosquitoes (Culex pipiens pallens) were released into the chamber. After 15 minutes, the knock-down percentage was observed. Reference compound was also tested.

Compound: Cc1cc(O)c(C(=O)CC(C)C)c(=O)o1 [The Pyrone Compound]
- mortality [1]: 100%
- Mortality (%) ([2]; dosage 200 mg/m^2, one day): 98%
- Mortality (%) ([2]; dosage 800 mg/m^2, one day): 100%
- knock-down percentage [3]: 100%
- Mortality (%) ([4]; after 7 days): 67%
- Knock-down percentage (%) ([4]; two hours): 100%
- damage of the leaf disc compared with the non-treated disc [5]: clearly smaller
- Knock-down percentage (%) ([6]; after 2 hours): 100%
- Mortality (%) ([6]; after 7 days): 100%
- Knock-down percentage (%) ([7]; after 2 hours): 100%
- Mortality (%) ([7]; after 7 days): 100%
- Mortality (%) ([8]; after 7 days): 100%
- Knock-down percentage (%) ([8]; two hours): 100%
- Knock-down percentage (%) [9]: 98%
